Data taken from US11517596B2, “Method for alleviating arthritis with postbiotic extract” (CHAMBIO CO., LTD., priority 2020, dated 2022).

How the values were obtained:
SW1353 cells [1] = assay: Proliferation of SW1353 cells (MTT staining, OD570 converted to cell number); type: cell-based, Human; conditions: 24 hours
Method: (§1) • 2. Human primary central chondrosarcoma cell line SW1353 was purchased from the Bioresource Collection and Research Center of the Food Industry Research and Development Institute (BCRC of FIRDI, Taiwan). SW1353 cells were grown in a 10-cm Petri dish containing Dulbecco's Modified Eagle's Medium (DMEM) (Thermo Fisher Scientific) supplemented with 10% fetal bovine serum (FBS). The SW1353 cells were cultivated in an incubator with culture conditions set at 37° C. and 5% CO2. Medium change was performed every two to three days. Cell passage was performed when the cultured cells reached 80-90% of confluence. • 3.
SW1353 cells were divided into 3 groups, including one control group and two experimental groups (i.e., experimental groups L and B). Each group of the SW1353 cells was incubated in a respective well of a 96-well culture plate containing 200 μL of DMEM at 1×10^4 cells/well, followed by cultivation in an incubator (37° C., 5% CO2) for 24 hours. […] The cell culture of the control group received no treatment.
After cultivation in an incubator (37° C., 5% CO2) for 24 hours, the respective resultant cell culture was stained with 3-(4,5-Dimethylthiazol-2-yl)-2,5-diphenyltetrazolium bromide (MTT), followed by subjecting the stained cells to determination of absorbance at a wavelength of 570 nm by a spectrophotometer. The OD570 values obtained were subsequently converted to cell numbers based on a correlation curve previously prepared by plotting different known cell numbers of the SW1353 cells versus their OD570 values.
(§2) SW1353 cells were divided into 28 groups, including fourteen comparative groups (i.e., comparative groups 1L to 7L and […]) and fourteen experimental groups (i.e., experimental groups 1L to 7L and 1B to 7B). Each group of the SW1353 cells was incubated in a respective well of a 96-well culture plate containing 200 μL of DMEM at 1×10^4 cells/well, followed by cultivation in an incubator (37° C., 5% CO2) for 24 hours.
After cultivation in an incubator (37° C., 5% CO2) for 24 hours, the cell number of each group was determined according to the method described in section C of this example. The fold increase of viable cells was calculated using the following Equation (II): C=D/E (II) where C=fold increase of viable cells • D=cell number of respective experimental group or comparative group • E=cell number of corresponding comparative group 1L, 2L, 3L, 4L, 5L, 6L, or 7L

SW1353 cells [2] = assay: Determination of TGF-β content (ELISA) of SW1353 cell cultures treated with postbiotic extract and/or nutritional component; type: cell-based, Human; conditions: 24 hours
Method: as §1
The TGF-β content was determined using an enzyme-linked immunosorbent assay (ELISA) kit (Cat. No. 559119, BD Biosciences) in accordance with the manufacturer's instructions.
SW1353 cells were divided into 25 groups, including one control group, twelve comparative groups (i.e., comparative groups L-1 to L-6 and B-1 to B-6), and twelve experimental groups (i.e., experimental groups L-1 to L-6 and B-1 to B-6). Each group of the SW1353 cells was incubated in a respective well of a 96-well culture plate containing 200 μL of DMEM at 1×10^4 cells/well, followed by cultivation in an incubator (37° C., 5% CO2) for 24 hours. […] The cell culture of the control group received no treatment.
After cultivation in an incubator (37° C., 5% CO2) for 24 hours, the respective resultant cell culture was subjected to the determination of TGF-β content according to the method described in section 1 of “General Procedures”.
as §2

[3] = nutritional component only 50 mg/L, this group is the reference of the ratio
[4] = nutritional component only 100 mg/L, relative to the same component at 50 mg/L
[5] = nutritional component only 50 mg/L
[6] = nutritional component only 100 mg/L

Compound | Fold increase of viable cells (SW1353 cells [1]; [3]) | Fold increase of viable cells (SW1353 cells [1]; [4]) | TGF-β content (SW1353 cells [2]; [5]) [pg/mL] | TGF-β content (SW1353 cells [2]; [6]) [pg/mL]
Chondroitin | 1.0 | 1.1 | 38.3 | 44.2
O=C1O[C@H]([C@@H](O)CO)C(O)=C1O [Vitamin C] | 1.0 | 1.0 | 18.2 | 21.1
Sodium hyaluronate | 1.0 | 1.1 | 97.3 | 102.2
N[C@H]1C(O)O[C@H](CO)[C@@H](O)[C@@H]1O (stereo partly shown) [Glucosamine] | 1.0 | 1.1 | 17.1 | 20.8
